Numbers after ± are expanded uncertainties.
Assay: refractive index (other wavelength) (dimensionless); xn = mol fraction of the nth substance listed
Conditions: 318.15 K, 101 kPa, Liquid, Standard Abbe refractometry

CC(C)OC(C)C [diisopropyl ether] + CO
refractive index
Conditions | Wavelength=486.1 nm | Wavelength=546.1 nm | Wavelength=587.6 nm | Wavelength=589.3 nm | Wavelength=632.8 nm | Wavelength=644 nm | Wavelength=706.5 nm
x2 = 0 | – | 1.35556 ± 0.00044 | 1.35416 ± 0.00044 | 1.35411 ± 0.00044 | 1.3529 ± 0.00043 | 1.35259 ± 0.00044 | 1.3512 ± 0.00043
x2 = 0.0423 | – | 1.35556 ± 0.00043 | 1.35414 ± 0.00043 | 1.35409 ± 0.00043 | 1.35285 ± 0.00043 | 1.35256 ± 0.00043 | 1.35117 ± 0.00043
x2 = 0.0424 | – | 1.35551 ± 0.00043 | 1.3541 ± 0.00043 | 1.35405 ± 0.00043 | 1.35283 ± 0.00043 | 1.35253 ± 0.00043 | 1.35116 ± 0.00043
x2 = 0.082 | – | 1.35551 ± 0.00042 | 1.35411 ± 0.00042 | 1.35406 ± 0.00042 | 1.35285 ± 0.00042 | 1.35255 ± 0.00042 | 1.35115 ± 0.00042
x2 = 0.0822 | – | 1.35565 ± 0.00042 | 1.35423 ± 0.00042 | 1.35418 ± 0.00042 | 1.35295 ± 0.00042 | 1.35267 ± 0.00042 | 1.35128 ± 0.00042
x2 = 0.1171 | – | 1.35556 ± 0.00041 | 1.35417 ± 0.00041 | 1.35412 ± 0.00041 | 1.3529 ± 0.00041 | 1.35259 ± 0.00041 | 1.3512 ± 0.00041
x2 = 0.1271 | – | 1.35557 ± 0.00041 | 1.35415 ± 0.00041 | 1.3541 ± 0.00041 | 1.35289 ± 0.00041 | 1.3526 ± 0.00041 | 1.35122 ± 0.00041
x2 = 0.1827 | 1.35814 ± 0.0004 | 1.35541 ± 0.0004 | 1.354 ± 0.0004 | 1.35395 ± 0.0004 | 1.35273 ± 0.0004 | 1.35243 ± 0.0004 | 1.35105 ± 0.0004
x2 = 0.2162 | 1.35804 ± 0.0004 | 1.35526 ± 0.0004 | 1.35387 ± 0.0004 | 1.35382 ± 0.0004 | 1.35262 ± 0.0004 | 1.35233 ± 0.0004 | –
x2 = 0.251 | 1.35753 ± 0.00039 | 1.35479 ± 0.00039 | 1.35338 ± 0.00039 | 1.35333 ± 0.00039 | 1.35213 ± 0.00039 | 1.35185 ± 0.00039 | –
x2 = 0.3298 | 1.358 ± 0.00038 | 1.35528 ± 0.00038 | 1.35387 ± 0.00038 | 1.35292 ± 0.00038 | 1.35259 ± 0.00038 | 1.35229 ± 0.00038 | 1.35092 ± 0.00038
x2 = 0.3577 | 1.35689 ± 0.00038 | 1.35419 ± 0.00038 | 1.35274 ± 0.00038 | 1.35269 ± 0.00038 | 1.35147 ± 0.00038 | 1.3512 ± 0.00038 | 1.34984 ± 0.00038
x2 = 0.4497 | 1.35572 ± 0.00038 | 1.35303 ± 0.00038 | 1.35162 ± 0.00038 | 1.35157 ± 0.00038 | 1.35038 ± 0.00038 | 1.3501 ± 0.00038 | 1.34871 ± 0.00038
x2 = 0.4525 | 1.35631 ± 0.00037 | 1.3537 ± 0.00038 | 1.35228 ± 0.00038 | 1.35223 ± 0.00038 | 1.35098 ± 0.00038 | 1.35071 ± 0.00038 | 1.34936 ± 0.00038
x2 = 0.522 | 1.35398 ± 0.00035 | 1.35136 ± 0.00035 | 1.34995 ± 0.00035 | 1.34989 ± 0.00035 | 1.34869 ± 0.00035 | 1.34842 ± 0.00035 | 1.34709 ± 0.00035
x2 = 0.5543 | 1.35305 ± 0.00035 | 1.35042 ± 0.00035 | 1.34905 ± 0.00035 | 1.349 ± 0.00035 | 1.34779 ± 0.00035 | 1.34751 ± 0.00035 | 1.34616 ± 0.00043
x2 = 0.609 | 1.35085 ± 0.00034 | 1.34818 ± 0.00034 | 1.34684 ± 0.00034 | 1.3468 ± 0.00034 | 1.34566 ± 0.00034 | 1.34538 ± 0.00034 | 1.34405 ± 0.00034
x2 = 0.6529 | 1.34936 ± 0.00034 | 1.34672 ± 0.00034 | 1.34534 ± 0.00034 | 1.34529 ± 0.00034 | 1.34413 ± 0.00034 | 1.34386 ± 0.00034 | 1.34255 ± 0.00034
x2 = 0.7504 | 1.34529 ± 0.00034 | 1.34271 ± 0.00034 | 1.34138 ± 0.00034 | 1.34133 ± 0.00034 | 1.34018 ± 0.00034 | 1.3399 ± 0.00034 | 1.33858 ± 0.00034
x2 = 0.804 | 1.33919 ± 0.00035 | 1.33675 ± 0.00035 | 1.33541 ± 0.00035 | 1.33536 ± 0.00037 | 1.33421 ± 0.00035 | 1.33396 ± 0.00035 | 1.33271 ± 0.00035
x2 = 0.807 | 1.34094 ± 0.00035 | 1.33842 ± 0.00034 | 1.33709 ± 0.00034 | 1.33777 ± 0.00036 | 1.33591 ± 0.00034 | 1.33566 ± 0.00034 | 1.33438 ± 0.00034
x2 = 0.8727 | 1.3379 ± 0.00033 | 1.33543 ± 0.00033 | 1.33411 ± 0.00033 | 1.33406 ± 0.00033 | 1.33294 ± 0.00033 | 1.33269 ± 0.00033 | 1.33146 ± 0.00033
x2 = 0.9233 | 1.32983 ± 0.00033 | 1.32743 ± 0.00033 | 1.32614 ± 0.00032 | 1.3261 ± 0.00032 | 1.32501 ± 0.00032 | 1.32477 ± 0.00032 | 1.3236 ± 0.00032
x2 = 0.9253 | 1.33151 ± 0.00032 | 1.32907 ± 0.00032 | 1.32777 ± 0.00032 | 1.32772 ± 0.00032 | 1.32665 ± 0.00032 | 1.32641 ± 0.00032 | 1.32521 ± 0.00032
x2 = 0.9527 | 1.32842 ± 0.00032 | 1.32601 ± 0.00032 | 1.32474 ± 0.00032 | 1.32469 ± 0.00032 | 1.32362 ± 0.00032 | 1.32339 ± 0.00032 | 1.32222 ± 0.00032
x2 = 0.9773 | 1.32541 ± 0.00032 | 1.32301 ± 0.00032 | 1.32177 ± 0.00032 | 1.32173 ± 0.00032 | 1.32066 ± 0.00032 | 1.32042 ± 0.00032 | 1.3193 ± 0.00032
x2 = 0.989 | 1.3242 ± 0.00032 | 1.32177 ± 0.00032 | 1.32052 ± 0.00032 | 1.32048 ± 0.00032 | 1.31944 ± 0.00032 | 1.31921 ± 0.00032 | 1.31807 ± 0.00032
x2 = 0.9964 | 1.32328 ± 0.00032 | 1.3209 ± 0.00032 | 1.31967 ± 0.00032 | 1.31963 ± 0.00032 | 1.31859 ± 0.00032 | 1.31836 ± 0.00032 | 1.31724 ± 0.00032

— the NIST ThermoML archive (doi:10.1016/j.fluid.2014.09.014)
